Measurements from publication PMC5257293 (Journal of medicinal chemistry, 2016).

Columns and labels:
Sa43300 = assay: Mutant selection / mutational frequency at 6x MIC; format: cell-based, Staphylococcus aureus; details: progenitor Sa43300, selection at 6x MIC
Sa43300(H149R) = assay: Mutant selection / mutational frequency at 6x MIC; format: cell-based, Staphylococcus aureus; details: progenitor Sa(H149R), selection at 6x MIC
S. aureus 43300 = details: cited from earlier work
Sa43300(F98Y) = assay: Mutant selection / mutational frequency at 6x MIC; format: cell-based, Staphylococcus aureus; details: progenitor Sa(F98Y), selection at 6x MIC
Sa(H30N, F98Y) DHFR = Sa(H30N, F98Y) DHFR (Staphylococcus aureus, UniProt P0A017, F99Y/H31N); assay: DHFR enzyme inhibition; format: biochemical; details: Ki ratio mutant vs wild-type

SMILES | Mutational Frequency, DHFR mutation F98Y (Sa43300) | Mutational Frequency, DHFR mutation H30N (Sa43300) | Mutational Frequency, DHFR mutation H149R (Sa43300) | Mutational Frequency, DHFR mutation F98Y/H149R (Sa43300(H149R)) | mutation frequencies (mutants F98Y and F98I in the DHFR gene) (S. aureus 43300) | Mutational Frequency, DHFR mutation F98Y/H30N (Sa43300(F98Y)) | loss in affinity for Sa (F98Y, H30N) double mutant enzyme relative to wild-type (Sa(H30N, F98Y) DHFR) [fold]
CCc1nc(N)nc(N)c1C#CC(C)c1cc(OC)cc(-c2ccncc2)c1 (centres unmarked) [Compound 1] | 3.11 x 10^−11 | 4.67 x 10^−11 | 1.65 x 10^−10 | 1.23x10^−11 | 10^−10 | 8.2 x 10^−12 | –
CCc1nc(N)nc(N)c1C#CC(C)c1cc2c(c(-c3ccncc3)c1)OCO2 (centres unmarked) [Compound 2] | – | – | – | – | – | – | 180 to 300
CCc1nc(N)nc(N)c1C#C[C@H](C)c1cc2c(c(-c3ccncc3)c1)OCO2 [Compound 7] | – | – | – | – | – | – | 180 to 300
